Measurements reported in BindingDB's records for PubMed 1930610 (Eli Lilly, 1991).
pKi: −log10 of the molar value. Counter-ions that a name gives are not always drawn.

What was measured:
[1] = target: 5-hydroxytryptamine 1D receptor (Bos taurus, UniProt Q8MI13)
[2] = target: 5-hydroxytryptamine receptor 1B (Rattus norvegicus, UniProt P28564)
[3] = target: Beta-arrestin-2 (Bos taurus, UniProt P32120)
[4] = target: T1, 5-hydroxytryptamine receptor 3A (Rattus norvegicus, UniProt P35563)
T1 sequence (P35563 whole entry): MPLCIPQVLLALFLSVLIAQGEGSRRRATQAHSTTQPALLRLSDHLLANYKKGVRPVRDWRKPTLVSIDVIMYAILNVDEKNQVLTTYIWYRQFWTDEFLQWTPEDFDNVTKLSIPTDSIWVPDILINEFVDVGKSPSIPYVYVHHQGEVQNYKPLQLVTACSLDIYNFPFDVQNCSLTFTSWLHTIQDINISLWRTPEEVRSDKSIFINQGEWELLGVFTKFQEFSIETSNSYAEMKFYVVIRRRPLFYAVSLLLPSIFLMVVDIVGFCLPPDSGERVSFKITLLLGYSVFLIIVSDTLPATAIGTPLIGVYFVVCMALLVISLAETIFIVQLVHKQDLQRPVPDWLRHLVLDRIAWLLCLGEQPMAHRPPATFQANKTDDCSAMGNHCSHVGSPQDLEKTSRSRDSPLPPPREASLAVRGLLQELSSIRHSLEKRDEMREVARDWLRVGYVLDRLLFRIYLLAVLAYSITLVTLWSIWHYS

[5] = target: 5-hydroxytryptamine receptor 2A (Rattus norvegicus, UniProt P14842)
5-hydroxytryptamine receptor 2A, sequence (P14842 whole entry): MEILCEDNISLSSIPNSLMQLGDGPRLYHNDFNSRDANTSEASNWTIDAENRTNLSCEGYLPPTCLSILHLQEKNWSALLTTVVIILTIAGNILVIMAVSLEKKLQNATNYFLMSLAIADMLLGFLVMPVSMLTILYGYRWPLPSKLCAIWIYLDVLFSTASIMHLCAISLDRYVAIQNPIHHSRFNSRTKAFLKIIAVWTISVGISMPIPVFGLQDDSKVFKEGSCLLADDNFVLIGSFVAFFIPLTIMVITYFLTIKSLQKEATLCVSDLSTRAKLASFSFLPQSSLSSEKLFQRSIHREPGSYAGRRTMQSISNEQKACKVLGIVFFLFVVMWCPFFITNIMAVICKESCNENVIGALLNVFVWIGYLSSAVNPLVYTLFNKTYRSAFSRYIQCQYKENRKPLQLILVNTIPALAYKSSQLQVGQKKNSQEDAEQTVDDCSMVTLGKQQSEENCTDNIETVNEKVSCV

[6] = target: T2, 5-hydroxytryptamine receptor 1A (Rattus norvegicus, UniProt P19327)
T2 sequence (P19327 whole entry): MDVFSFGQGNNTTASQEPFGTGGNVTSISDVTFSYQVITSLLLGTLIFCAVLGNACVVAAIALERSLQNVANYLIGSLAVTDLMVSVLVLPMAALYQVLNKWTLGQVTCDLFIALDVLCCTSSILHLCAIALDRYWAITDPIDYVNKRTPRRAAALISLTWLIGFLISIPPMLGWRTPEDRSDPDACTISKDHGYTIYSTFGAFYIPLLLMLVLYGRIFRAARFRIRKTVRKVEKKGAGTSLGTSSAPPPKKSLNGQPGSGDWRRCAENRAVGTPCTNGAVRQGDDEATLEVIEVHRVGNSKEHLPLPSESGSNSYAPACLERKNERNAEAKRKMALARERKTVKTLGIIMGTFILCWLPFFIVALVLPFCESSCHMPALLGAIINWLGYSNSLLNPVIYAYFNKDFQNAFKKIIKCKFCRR

5-hydroxytryptamine 1D receptor, sequence (Q8MI13 whole entry): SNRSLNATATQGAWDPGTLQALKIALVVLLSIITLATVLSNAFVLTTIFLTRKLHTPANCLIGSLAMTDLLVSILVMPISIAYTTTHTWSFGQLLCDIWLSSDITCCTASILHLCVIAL
Beta-arrestin-2, sequence (P32120 whole entry): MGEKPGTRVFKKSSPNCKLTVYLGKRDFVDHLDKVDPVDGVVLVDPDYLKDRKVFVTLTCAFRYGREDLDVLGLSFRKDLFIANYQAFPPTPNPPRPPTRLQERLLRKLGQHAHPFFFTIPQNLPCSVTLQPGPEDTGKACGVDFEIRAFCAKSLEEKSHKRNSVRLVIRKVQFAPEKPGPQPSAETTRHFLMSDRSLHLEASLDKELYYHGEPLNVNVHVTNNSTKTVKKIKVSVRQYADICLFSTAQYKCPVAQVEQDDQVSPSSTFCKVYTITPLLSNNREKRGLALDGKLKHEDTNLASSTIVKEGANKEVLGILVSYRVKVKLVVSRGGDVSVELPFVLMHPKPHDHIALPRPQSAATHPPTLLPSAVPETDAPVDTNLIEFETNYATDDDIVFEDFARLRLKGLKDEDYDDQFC
5-hydroxytryptamine receptor 1B, sequence (P28564 whole entry): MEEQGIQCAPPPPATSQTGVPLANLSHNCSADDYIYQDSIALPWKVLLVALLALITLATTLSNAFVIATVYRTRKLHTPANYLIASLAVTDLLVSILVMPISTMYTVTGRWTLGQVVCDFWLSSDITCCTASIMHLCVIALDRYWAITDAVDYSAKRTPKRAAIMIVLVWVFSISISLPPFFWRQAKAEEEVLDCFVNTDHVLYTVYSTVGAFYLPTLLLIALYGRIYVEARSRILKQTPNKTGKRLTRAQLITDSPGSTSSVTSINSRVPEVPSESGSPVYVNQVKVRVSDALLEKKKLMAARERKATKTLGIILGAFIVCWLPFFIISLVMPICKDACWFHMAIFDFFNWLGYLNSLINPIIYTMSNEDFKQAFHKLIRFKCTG

| Compound | pKi [1] | pKi [2] | pKi [3] | pKi [4] | pKi [5] | pKi [6] |
| --- | --- | --- | --- | --- | --- | --- |
| CN(C)CCCC1(c2ccc(F)cc2)OCc2cc(C#N)ccc21 (configuration not stated) [CITALOPRAM HYDROBROMIDE] | < 5.00 | < 5.00 | 5.48 | < 5.00 |  |  |
| CNCC[C@@H](Oc1ccc(C(F)(F)F)cc1)c1ccccc1 [(3R)-N-methyl-3-phenyl-3-[4-(trifluoromethyl)phenoxy]propan-1-amine] | 5.41 |  | 5.44 |  |  |  |
| COc1ccc(OC[C@H]2CN(C)CC[C@@H]2c2ccccc2)cc1 [(3R,4S)-3-(4-Methoxy-phenoxymethyl)-1-methyl-4-phenyl-piperidine] | 5.43 | 5.03 | 5.72 | < 5.00 | 6.39 | 5.50 |
| CNCC[C@@H](Oc1ccc(C(F)(F)F)cc1)c1ccccc1 [Prozac] | 5.37 |  | 6.57 |  |  |  |
| Fc1ccc([C@@H]2CCNC[C@H]2COc2ccc3c(c2)OCO3)cc1 [PAROXETINE] | 5.31 | < 5.00 | < 5.00 | 5.58 |  | < 5.00 |
| c1ccc2c(CCC3CCNCC3)c[nH]c2c1 | 5.44 | 5.35 | 5.49 | 5.49 | 6.10 | 5.04 |
| CNCC[C@@H](Oc1ccc(C(F)(F)F)cc1)c1ccccc1 [Fluoxetine-R-(-)] | < 5.00 |  | 6.81 |  |  |  |
